These are literature values, as cited in the CATMoS acute toxicity set (Mansouri et al. 2021).

What is called LD50 is the dose expected to kill half of the subjects tested.

The data set can be described thus: rat acute oral toxicity. The settings on record: in vivo. An excerpt: […]The data set underlying the modeling effort for this project was initially compiled by NICEATM and U.S. EPA’s CCTE. Briefly, LD50 data were collected from rat acute oral systemic toxicity tests, including limit tests, ranges/confidence intervals, and discrete LD50 values. The full data set included 21,200 LD50 entries for 15,688 substances. […] Data were reviewed to ensure that LD50 values with obvious errors in the extracted data such as unit conversion errors (e.g., comma and decimal separator misplacements) were either fixed or removed. After this review, 16,209 LD50 values remained. Many of the chemicals represented had multiple LD50 entries, requiring that a single representative value per Chemical Abstracts Service Registry Number (CASRN) identifier be defined to facilitate modeling efforts. Based on ATWG feedback and to define the representative LD50 as a protective value while accounting for the distribution across multiple LD50s, the median of the lowest quartile was computed using only discrete LD50 values (omitting limit test data and range and confidence interval data). A detailed summary of the data compilation is available online on the NICEATM webpage dedicated to the collaborative modeling project (NTP 2020).
[…][…] For categorical designations, limit test and range/confidence interval LD50 data were integrated wherever possible. As such, the number of chemicals with end point values/calls varies across the modeling end points (Table 3) based on whether chemicals had representative LD50 values and/or other data. If a chemical had both, the representative value was used to determine categorical calls rather than limit test data. Some data were useable only for certain end points and categories depending on the thresholds. For example, ranges that spanned multiple hazard categories were considered only for the binary (very toxic/nontoxic) end points and omitted from rendering a determination for hazard category assignment.
[…]The final data set comprising 11,992 chemicals was split into training and evaluation sets […], respectively. This process was performed semirandomly by ordering chemicals based on the five end points (categorical and continuous LD50 values) and partitioning every fourth record into the evaluation set accordingly. This approach was taken to ensure an equivalent distribution of the LD50 values and the different hazard categories between the training and the evaluation sets without supervised sampling of the chemicals based on structures (Figure 1A). The sources of the chemical structures were also kept equivalent between the two sets, with chemical structures obtained from DSSTox, being the highest quality, representing over 75% of each set (Figure 1B).
For `COP(=O)(OC)Sc1ccc(Cl)cc1`, the median lethal dose (LD50) was 100 mg/kg. For the compound `COc1ccc2c(c1)c(CC(=O)Oc1ccc(NC(C)=O)cc1)c(C)n2C(=O)c1ccc(Cl)cc1`, the 50% lethal dose (LD50) was 887 mg/kg. Regarding `CC(=O)OC1CC2CCC3C(CCC4(C)C3CC(OC(C)=O)C4[N+]3(C)CCCCC3)C2(C)CC1[N+]1(C)CCCCC1` (stereo not drawn), the median lethal dose (LD50) is 202 mg/kg. For the compound `CCCCCCCOCCOCCO`, the median lethal dose (LD50) was 2940 mg/kg. Consider `CCCNNc1ccccc1`, for which the LD50 is 13 mg/kg.

For `C=C(OP(=O)(OC)OC)P(=O)(OC)OC`, the 50% lethal dose (LD50) is 287 mg/kg. Consider `COP(=S)(OC)Oc1ccc(Cl)c([N+](=O)[O-])c1`, for which the LD50 was 500 mg/kg.

As to `COc1cc(C(=O)N2CCOCC2)cc(OC)c1OC`, the LD50 was 1800 mg/kg. For `COP(=O)(OC)OC(Br)C(Br)(Br)Br` (stereo not drawn), the LD50 was 184 mg/kg. Regarding `c1coc(COCc2ccco2)c1`, the median lethal dose (LD50) was 210 mg/kg.

Regarding `Nc1ccc(Cl)cc1Cl`, the LD50 is 1600 mg/kg. As for `CCSSCC`, the LD50 is 2030 mg/kg. Regarding `Nc1ccc2c(c1)[nH]c1ccccc12`, the LD50 was 964 mg/kg.

As to `CCOC(=O)C(Br)C#N` (stereo not drawn), the LD50 is 420 mg/kg. Regarding `FC(F)(F)C(Cl)(Cl)C(Cl)(Cl)C(F)(F)F`, the LD50 was 800 mg/kg. As to `CC=C1CC(C)C(C)(O)C(=O)OCC2=CCN3CCC(OC1=O)C23` (stereo not drawn), the median lethal dose (LD50) is 85 mg/kg. Consider `CC(C)=CCN(CC=C(C)C)CCC(C(N)=O)c1cccc2ccccc12` (stereo not drawn), for which the 50% lethal dose (LD50) was 353 mg/kg. For the compound `CCC(Cl)Cl`, the 50% lethal dose (LD50) was 6500 mg/kg. Regarding `Cc1ccccc1C(O)(c1ccccc1)C(C)CN(C)C` (stereo not drawn), the LD50 is 185 mg/kg.

On to `CCOC(=O)Nc1ccc2c(c1)N(C(=O)CN(C)C)c1ccccc1CC2`, for which the median lethal dose (LD50) was 78 mg/kg. For the compound `CN1[C@@H]2CC[C@H]1C[C@@H](OC(c1ccccc1)c1ccc(Cl)cc1)C2` (stereo partly drawn), the median lethal dose (LD50) was 364 mg/kg.

Turning to `CO[Si](CCCNCCC[Si](OC)(OC)OC)(OC)OC`, the 50% lethal dose (LD50) was 3780 mg/kg. As for `CC1(C)NC(=O)NC1=O`, the median lethal dose (LD50) was 7800 mg/kg. Consider `NNC(=O)CSc1cc(Oc2ccc(Cl)cc2)ncn1`, for which the LD50 was 800 mg/kg. As for `COC1CC(=C(c2cccs2)c2cccs2)C[N+](C)(C)C1` (stereo not drawn), the LD50 is 1210 mg/kg.

With `CCCCC/C(=C/c1ccccc1)CO`, the median lethal dose (LD50) was 4000 mg/kg. Take `CC[N+](C)(C)C(C)CC(c1ccccc1)c1ccccc1` (stereo not drawn): the 50% lethal dose (LD50) is 1000 mg/kg. As for `Cc1c(Cl)c(Cl)c2nc(C(F)(F)F)[nH]c2c1Cl`, the LD50 was 18.3 mg/kg. On to `CN(C)C(=S)c1ccc2c(c1)OCO2`, for which the median lethal dose (LD50) was 79 mg/kg. Take `Cc1ccc(C)c(N)c1`: the median lethal dose (LD50) is 1300 mg/kg. For `CCCCC(CC)COC(C[n+]1ccccc1)c1ccccc1` (stereo not drawn), the LD50 is 250 mg/kg.

As to `O=C(CCl)c1ccc(Cl)cc1Cl`, the 50% lethal dose (LD50) is 300 mg/kg. On to `Cc1ccccc1O`, for which the LD50 is 1860 mg/kg. In the case of `CC(C(=O)O)c1ccc(CC2CCCC2=O)cc1` (stereo not drawn), the LD50 was 145 mg/kg. As to `C/C=C/C(=O)OCC`, the LD50 is 3000 mg/kg.

For `FC(F)(F)C(F)(F)C(F)(F)C(F)(F)C(F)(F)C(F)(F)C(F)(F)C[n+]1ccccc1`, the LD50 was 1160 mg/kg. Turning to `C=CN`, the 50% lethal dose (LD50) is 1850 mg/kg. With `O=C(Cn1c(=O)sc2ccc(Cl)cc21)N1CCNCC1`, the LD50 is 734 mg/kg. With `CCCCCCCCC=CCCCCCCCC(=O)OCC1CO1` (stereo not drawn), the median lethal dose (LD50) is 3520 mg/kg. `CCN1CCc2c3n(c4ccccc24)C(C(=O)OC)=CCC31` (stereo not drawn): the LD50 was 2350 mg/kg. Consider `CCOC1CC2CN3CCc4c([nH]c5cc(OC)ccc45)C3CC2C(C(=O)OC)C1OC` (stereo not drawn), for which the LD50 was 187 mg/kg. As for `CCCCc1c(C)nc(NCC)nc1OS(=O)(=O)N(C)C`, the 50% lethal dose (LD50) is 4000 mg/kg. For the compound `O=C1CN2CCOC2(c2ccccc2Cl)c2cc(Cl)ccc2N1` (stereo not drawn), the median lethal dose (LD50) is 1780 mg/kg. Consider `CC(=O)CCCOC(C)=O`, for which the LD50 is 6080 mg/kg. For the compound `O=C(O)C1=CC(=CC=[N+]2C(C(=O)O)=Cc3cc(O)c(O)cc32)CC(C(=O)[O-])N1` (stereo not drawn), the LD50 is 3140 mg/kg. Take `CC(C)(C)c1nnc(NS(=O)(=O)c2ccccc2)s1`: the 50% lethal dose (LD50) was 500 mg/kg. Take `CCCC(=O)OC(Cl)C(Cl)(Cl)Cl` (stereo not drawn): the LD50 is 1480 mg/kg. Turning to `Oc1c(Cl)cc(Cl)cc1Sc1cc(Cl)cc(Cl)c1O`, the LD50 was 492 mg/kg.

Turning to `O=c1ccc2ccc3occc3c2o1`, the median lethal dose (LD50) was 322 mg/kg. As to `Cc1cc(C(C)(C)CC(C)(C)C)ccc1OCCOCC[N+](C)(C)Cc1ccccc1`, the LD50 was 800 mg/kg. For the compound `CCCCCCCC(=O)NO`, the 50% lethal dose (LD50) was 10700 mg/kg. In the case of `CC(C)[N+](=O)[O-]`, the median lethal dose (LD50) was 720 mg/kg.

Consider `O=C(O)CSc1cc(Cl)ccc1Cl`, for which the LD50 was 1900 mg/kg.
